Measured values reported in patent US11008340B2, “Modulators of ROR-gamma” (Vitae Pharmaceuticals, LLC, priority 2015, dated 2021).

Experiments:
[1] = target: T1, full-length RORγt in Jurkat cells (Homo sapiens, UniProt P51449); assay: RORγt 5×RORE Assay in Jurkat Cells (Assay 2); format: cell-based; conditions: 5×RORE luciferase reporter, read-out: Avg ROR γt/5x IC50
T1 construct: transcriptional activity of the full-length RORγt in Jurkat cells; host or cells: Jurkat cells (ATCC TIB-152)
T1 sequence (P51449 1-497 isoform P51449-2): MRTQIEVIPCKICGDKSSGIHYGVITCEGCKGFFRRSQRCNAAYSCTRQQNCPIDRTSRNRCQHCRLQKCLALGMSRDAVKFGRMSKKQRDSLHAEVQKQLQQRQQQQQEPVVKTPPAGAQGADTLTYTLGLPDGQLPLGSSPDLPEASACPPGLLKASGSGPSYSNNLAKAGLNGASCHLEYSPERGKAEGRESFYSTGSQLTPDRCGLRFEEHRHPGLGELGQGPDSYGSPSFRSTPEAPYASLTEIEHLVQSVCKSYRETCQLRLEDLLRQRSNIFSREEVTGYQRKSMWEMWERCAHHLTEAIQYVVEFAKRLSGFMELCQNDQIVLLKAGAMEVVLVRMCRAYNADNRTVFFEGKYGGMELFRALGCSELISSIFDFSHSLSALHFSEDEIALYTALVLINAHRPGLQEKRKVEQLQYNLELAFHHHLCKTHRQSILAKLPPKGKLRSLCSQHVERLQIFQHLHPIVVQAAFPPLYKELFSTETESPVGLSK
Summary of the method: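 Inverse agonism measured as reduced NanoGlo signal from secreted NanoLuc in conditioned supernatant after 16-18 hrs compound exposure (37° C, 0.1% DMSO). Reporter: 5×RORE-driven secNluc, co-transfected with full-length RORγt into Jurkat cells cultured in delipidated-FBS, phenol-red-free RPMI.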

[2] = target: T2, recombinant RORγ Ligand Binding Domain (LBD) protein (Homo sapiens, UniProt P51449); assay: Radio-Ligand RORγ Binding Assay (Assay 1); conditions: radio-ligand competition, 25-hydroxy [26,27-3H]-cholesterol, RORγ LBD; read-out: Avg ROR Bind Ki
T2 construct: 6×His; GST
T2 sequence (P51449 269-508 limits assumed): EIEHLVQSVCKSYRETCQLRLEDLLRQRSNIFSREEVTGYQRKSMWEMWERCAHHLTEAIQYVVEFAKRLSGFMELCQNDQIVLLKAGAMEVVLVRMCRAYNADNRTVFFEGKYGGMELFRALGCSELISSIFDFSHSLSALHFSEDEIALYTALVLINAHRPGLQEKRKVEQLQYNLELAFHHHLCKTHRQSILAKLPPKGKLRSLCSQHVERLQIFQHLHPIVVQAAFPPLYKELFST
Summary of the method: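 Cell-free SPA competition between compound and 25-hydroxy[26,27-^3H]-cholesterol for 6×His-GST-tagged RORγ LBD in 50 mM HEPES pH 7.4 with NaCl, MgCl2, glycerol, CHAPS, octylglucoside and DTT. Mix was shaken 20 min, held 10 min at rt, then read after poly-Lys YSi beads. IC50 came from a four-parameter fit, and Ki from radioligand KD.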

| Compound | IC50 [1] [nM] | Ki [2] [nM] |
| --- | --- | --- |
| CCS(=O)(=O)c1ccc(CNC(=O)c2ccc3c(OC[C@H]4CC[C@H](C(F)(F)F)CC4)nc(Cl)cc3c2)cc1 [Hy1A-9, 3-chloro-N-(4-(ethylsulfonyl)benzyl)-1-(((1r,4r)-4-(trifluoromethyl)cyclohexyl)methoxy)isoquinoline-6-carboxamide] | < 100 | < 100 |
| CCS(=O)(=O)c1ccc([C@H](CO)NC(=O)c2ccc3c(OC[C@H]4CC[C@H](C(F)(F)F)CC4)nc(C)cc3c2)cc1 [Hy1A-10, N-((R)-1-(4-(ethylsulfonyl)phenyl)-2-hydroxyethyl)-3-methyl-1-(((1r,4R)-4-(trifluoromethyl)cyclohexyl)methoxy)isoquinoline-6-carboxamide] | < 100 | < 100 |
| CCS(=O)(=O)c1ccc([C@H](CO)NC(=O)c2ccc3c(OC[C@H]4CC[C@H](C(F)(F)F)CC4)nc(Cl)cc3c2)cc1 [Hy1A-11, 3-chloro-N-((R)-1-(4-(ethylsulfonyl)phenyl)-2-hydroxyethyl)-1-(((1r,4R)-4-(trifluoromethyl)cyclohexyl)methoxy)isoquinoline-6-carboxamide] | < 100 | < 100 |
| CCS(=O)(=O)c1ccc([C@H](CO)NC(=O)c2ccc3c(OCC4CC(F)(F)C4)nc(C)cc3c2)cc1 [Hy1A-12, (R)-1-((3,3-difluorocyclobutyl)methoxy)-N-(1-(4-(ethylsulfonyl)phenyl)-2-hydroxyethyl)-3-methylisoquinoline-6-carboxamide] | > 1000 | < 100 |
| CCS(=O)(=O)c1ccc([C@H](CO)NC(=O)c2ccc3c(OCc4ccc(F)cc4)nc(C)cc3c2)cc1 [Hy1A-13, (R)-N-(1-(4-(ethylsulfonyl)phenyl)-2-hydroxyethyl)-1-((4-fluorobenzyl)oxy)-3-methylisoquinoline-6-carboxamide] | 100 to 1000 | < 100 |
| CCS(=O)(=O)c1ccc([C@H](CO)NC(=O)c2ccc3c(OCC4CCC(F)(F)CC4)nc(C)cc3c2)cc1 [Hy1A-14, (R)-1-((4,4-difluorocyclohexyl)methoxy)-N-(1-(4-(ethylsulfonyl)phenyl)-2-hydroxyethyl)-3-methylisoquinoline-6-carboxamide] | < 100 | < 100 |
| CCS(=O)(=O)c1ccc([C@H](CO)NC(=O)c2ccc3c(Oc4ccc(OC(F)(F)F)cc4)nc(C)cc3c2)cc1 [Hy1A-15, (R)-N-(1-(4-(ethylsulfonyl)phenyl)-2-hydroxyethyl)-3-methyl-1-(4-(trifluoromethoxy)phenoxy)isoquinoline-6-carboxamide] | 100 to 1000 | < 100 |
| CCS(=O)(=O)c1ccc([C@@H](CO)NC(=O)c2ccc3c(OC[C@H]4CC[C@H](C(F)(F)F)CC4)nc(C)cc3c2)cc1 [Hy1A-16, N-((S)-1-(4-(ethylsulfonyl)phenyl)-2-hydroxyethyl)-3-methyl-1-(((1r,4S)-4-(trifluoromethyl)cyclohexyl)methoxy)isoquinoline-6-carboxamide] | < 100 | < 100 |
| CCS(=O)(=O)c1ccc([C@H](CO)NC(=O)c2ccc3c(OC4CCN(CC(F)(F)F)CC4)nc(C)cc3c2)cc1 [Hy1A-17, (R)-N-(1-(4-(ethylsulfonyl)phenyl)-2-hydroxyethyl)-3-methyl-1-((1-(2,2,2-trifluoroethyl)piperidin-4-yl)oxy)isoquinoline-6-carboxamide] | > 1000 | < 100 |
| CCS(=O)(=O)c1ccc([C@H](CO)NC(=O)c2ccc3c(OCC4CCN(CC(F)(F)F)CC4)nc(C)cc3c2)cc1 [Hy1A-19, (R)-N-(1-(4-(ethylsulfonyl)phenyl)-2-hydroxyethyl)-3-methyl-1-((1-(2,2,2-trifluoroethyl)piperidin-4-yl)methoxy)isoquinoline-6-carboxamide] | 100 to 1000 | < 100 |
| CCc1cc2cc(C(=O)NCc3ccc(S(=O)(=O)CC)cc3)ccc2c(OC[C@H]2CC[C@H](C(F)(F)F)CC2)n1 [Hy1A-20, 3-ethyl-N-(4-(ethylsulfonyl)benzyl)-1-(((1r,4r)-4-(trifluoromethyl)cyclohexyl)methoxy)isoquinoline-6-carboxamide] | < 100 | < 100 |
| CCS(=O)(=O)c1ccc([C@H](CO)NC(=O)c2ccc3c(OC[C@H]4CC[C@H](C(F)(F)F)CC4)nc(C4CC4)cc3c2)cc1 [Hy1A-21, 3-cyclopropyl-N-((R)-1-(4-(ethylsulfonyl)phenyl)-2-hydroxyethyl)-1-(((1r,4R)-4-(trifluoromethyl)cyclohexyl)methoxy)isoquinoline-6-carboxamide] | < 100 | < 100 |
| CCS(=O)(=O)c1ccc([C@H](CO)NC(=O)c2ccc3c(OC[C@H]4CC[C@H](C(F)(F)F)CC4)nc(OC)cc3c2)cc1 [Hy1A-23, N-((R)-1-(4-(ethylsulfonyl)phenyl)-2-hydroxyethyl)-3-methoxy-1-(((1r,4R)-4-(trifluoromethyl)cyclohexyl)methoxy)isoquinoline-6-carboxamide] | < 100 | < 100 |
| CCS(=O)(=O)c1ccc([C@H](CO)NC(=O)c2ccc3c(COc4ccc(C(F)(F)F)cc4)nccc3c2)cc1 [Hy1A-24, (R)-N-(1-(4-(ethylsulfonyl)phenyl)-2-hydroxyethyl)-1-((4-(trifluoromethyl)phenoxy)methyl)isoquinoline-6-carboxamide] | 100 to 1000 | < 100 |
| CCS(=O)(=O)c1ccc([C@H](CO)NC(=O)c2ccc3c(OCc4ccc(C(F)(F)F)cc4)cc(C)nc3c2)cc1 [Hy1B-3, (R)-N-(1-(4-(ethylsulfonyl)phenyl)-2-hydroxyethyl)-2-methyl-4-((4-(trifluoromethyl)benzyl)oxy)quinoline-7-carboxamide] | 100 to 1000 | < 100 |
| CCS(=O)(=O)c1ccc(CNC(=O)c2ccc3c(c2)CCN(c2ncc(C(F)(F)F)cn2)C3C(C)C)cc1 (centres unmarked) [Hy2A-2, N-(4-(ethylsulfonyl)benzyl)-1-isopropyl-2-(5-(trifluoromethyl)pyrimidin-2-yl)-1,2,3,4-tetrahydroisoquinoline-6-carboxamide] | > 1000 | 100 to 1000 |
| CCS(=O)(=O)c1ccc(CNC(=O)c2ccc3c(c2)CCN(c2nccc(C(F)(F)F)n2)C3C(C)C)cc1 (centres unmarked) [Hy2A-3, N-(4-(ethylsulfonyl)benzyl)-1-isopropyl-2-(4-(trifluoromethyl)pyrimidin-2-yl)-1,2,3,4-tetrahydroisoquinoline-6-carboxamide] | > 1000 | < 100 |
| CCS(=O)(=O)c1ccc(CNC(=O)c2ccc3c(c2)CCN(CC2CCN(C(=O)OC)CC2)[C@H]3C(C)C)cc1 [Hy2A-24, methyl (S)-4-((6-((4-(ethylsulfonyl)benzyl)carbamoyl)-1-isopropyl-3,4-dihydroisoquinolin-2(1H)-yl)methyl)piperidine-1-carboxylate] | 100 to 1000 | 100 to 1000 |
| CCS(=O)(=O)c1ccc([C@H](CO)NC(=O)c2ccc3c(C4CC4)n(C[C@H]4CC[C@H](C(F)(F)F)CC4)nc3c2)cc1 [Hy3A-1, 3-cyclopropyl-N-((R)-1-(4-(ethylsulfonyl)phenyl)-2-hydroxyethyl)-2-(((1r,4R)-4-(trifluoromethyl)cyclohexyl)methyl)-2H-indazole-6-carboxamide] | < 100 | < 100 |
| CCS(=O)(=O)c1ccc(CNC(=O)c2ccc3c(C4CC4)n(C[C@H]4CC[C@H](C(F)(F)F)CC4)nc3c2)cc1 [Hy3A-2, 3-cyclopropyl-N-(4-(ethylsulfonyl)benzyl)-2-(((1r,4r)-4-(trifluoromethyl)cyclohexyl)methyl)-2H-indazole-6-carboxamide] | < 100 | < 100 |
| CCS(=O)(=O)c1ccc(CNC(=O)c2ccc3c(C4CC4)n(C[C@H]4CC[C@H](C(F)(F)F)CC4)nc3c2)nc1 [Hy3A-3, 3-cyclopropyl-N-((5-(ethylsulfonyl)pyridin-2-yl)methyl)-2-(((1r,4r)-4-(trifluoromethyl)cyclohexyl)methyl)-2H-indazole-6-carboxamide] | < 100 | < 100 |
| CCS(=O)(=O)c1ccc([C@H](CO)NC(=O)c2ccc3c(C4CC4)n(Cc4ccc(C(F)(F)F)cc4)nc3c2)cc1 [Hy3A-4, (R)-3-cyclopropyl-N-(1-(4-(ethylsulfonyl)phenyl)-2-hydroxyethyl)-2-(4-(trifluoromethyl)benzyl)-2H-indazole-6-carboxamide] | < 100 | < 100 |
